Results as given in patent US20130129667A1, “Attractant compounds for yellow jacket wasps” (priority 2007, published 2013).

Experiments:
Type in all cases: in vivo
Vespula germanica = assay: Field trap catch of yellow jacket wasps with attractant
Protocol: (§1) On the top inside of the bottle, 2 cm below the cap 17, a 10 ml 'micro' glass vial 19 was installed. In this small container, 0.1 ml of an attractive compound 20 was deposited. In the bottom of the 500 ml bottle, 200 ml of water with liquid household detergent 22 was placed. The traps 10 or containers with the attractant 20, were placed randomly in different species of trees, mostly 'thorns,' Acacia […] Tebo, […] Lo Orozco, and apple trees in Casablanca (Chile), each hung from a wire 24, at a height of about 11⁄2 m from the ground, with a separation between them of about 10 m. […] The traps 10 were placed in Catapilco in the […] farm the 19th of February 2007, in the geographical locations of 33° 37' 06'' S. and 71° 19' 14'' O, for the Campo Lindo farm in Casablanca in 33° 14' 23'' S. and 71° 17' 37'' O on the 20th of February 2007 and Lo Orozco in 33° 13'26'' S. and 71° 24' 04'' O the 9th of April 2007. […] In the extent it was necessary the containers were filled up with water and detergent.

Other insects = assay: Field trap catch of other insects (selectivity)
Protocol: as §1

Bees = assay: Field trap catch of bees (selectivity); details: Lo Orozco; 21 days; five containers per attractant
Protocol: (§2) On the top inside of the bottle, 2 cm below the cap 17, a 10 ml 'micro' glass vial 19 was installed. In this small container, 0.1 ml of an attractive compound 20 was deposited. In the bottom of the 500 ml bottle, 200 ml of water with liquid household detergent 22 was placed. The traps 10 or containers with the attractant 20, were placed randomly in different species of trees, mostly 'thorns,' Acacia […] Tebo, […] Lo Orozco, and apple trees in Casablanca (Chile), each hung from a wire 24, at a height of about 11⁄2 m from the ground, with a separation between them of about 10 m. Two replications were used per each attractant in Catapilco, and five replications in Lo Orozco and Casablanca. The traps 10 were placed in Catapilco in the […] farm the 19th of February 2007, in the geographical locations of 33° 37' 06'' S. and 71° 19' 14'' O, for the Campo Lindo farm in Casablanca in 33° 14' 23'' S. and 71° 17' 37'' O on the 20th of February 2007 and Lo Orozco in 33° 13'26'' S. and 71° 24' 04'' O the 9th of April 2007. […] In the extent it was necessary the containers were filled up with water and detergent.

Polistes = assay: Field trap catch of Polistes (selectivity); details: Lo Orozco; 21 days; five containers per attractant
Protocol: as §2

[1] = Campo Lindo farm, Casablanca, 18 days, two containers per attractant, 0.1 ml
[2] = Manantiales farm, Catapilco, 17 days, two containers per attractant, 0.1 ml
[3] = Lo Orozco, 21 days, five containers per attractant

SMILES	Total number of V. germanica workers captured (Vespula germanica; [1])	Total number of V. germanica workers captured (Vespula germanica; [2])	Total number of other insects captured (Other insects; [1])	Total number of other insects captured (Other insects; [2])	Attraction compared with the standard mixture of acetic acid with isobutanol (Vespula germanica; Lo Orozco field tests)	Total number of V. germanica workers captured (Vespula germanica; [3])	Total number of other insects captured (Other insects; [3])	Total number of Bees captured (Bees)	Total number of Polistes captured (Polistes)
CCCCCCCCCCCCO [1-Dodecanol]	102	0	1 Sirfid	0	–	–	–	–	–
CCCCCC(C)=O [2-Heptanone]	92	69	0	0	–	–	–	–	–
CCCCCCCC(C)=O [2-Nonanone]	178	0	0	0	–	–	–	–	–
CCCCCCC(C)=O [2-Octanone]	209	416	1 Moth	0	superior	2.673	0	0	1
CCCCCC(=O)CC [3-Octanone]	218	356	0	–	–	892	0	0	0
CCCCCCC=O [Heptaldehyde]	129	9	0	0	–	–	–	–	–
CCCCCCCCC=O [Nonyl aldehyde]	97	1	0	3 Bees	–	–	–	–	–
CCCCCCCC=O [Octyl aldehyde]	101	3	0	0	–	–	–	–	–
CCCCC/C=C/C=C/C=O [Trans,trans-2,4-decadienal]	5	84	0	0	–	–	–	–	–
CCCC/C=C/C=C/C=O [Trans,trans-2,4-nonadienal]	218	0	0	0	–	–	–	–	–
CCCC/C=C/C=O [Trans-2-heptenal]	252	407	0	0	–	999	0	0	0
CCCCC/C=C/CO [Trans-2-octen-1-ol]	297	474	0	1 Bee	–	–	0	2	1
CCCCC=O [Valeraldehyde]	84	24	0	0	–	–	–	–	–
